The target of assay [1] is Rat recombinant KHK-A (Rattus norvegicus (Rat), UniProt Q02974). Kind of assay: KHK inhibition assay, recombinant isozyme (coupled pyruvate kinase/LDH, NADH absorbance 340 nm). The assay is classed as biochemical. Particulars: recombinant isozyme 6 nM, fructose 2 mM, ATP 0.1 mM. The protocol:
(§1) Determination of Human and Rat recombinant KHK-A and KHK-C isozyme IC50 Values
(§2) An assay reagent cocktail was prepared by combining NADH, water, TEA, KCl, MgCl2, PEP, ATP, DTT, coupling enzymes (pyruvate kinase and lactate dehydrogenase, LDH) to final concentrations as shown in Table B.
(§3) To this was added the relevant KHK isozyme to a final concentration of 6 nM. Aliquots of each inhibitor compound were diluted via 5-fold serial dilutions to produce final concentrations ranging from 1000 nM to 0.064 nM. The inhibitor aliquots were added to the assay reagent cocktail containing KHK with fructose (at a concentration of 2 mM) in a 96-well plate. The absorbance at 340 nm was measured via spectrophotometry and inhibition was analyzed using non-linear regression.

The target of assay [2] is Human recombinant KHK-A (Homo sapiens (Human), UniProt P50053). The assay is described as above. The assay is classed as biochemical. Particulars: recombinant isozyme 6 nM, fructose 2 mM, ATP 0.1 mM. The procedure: as §1, §2, §3
Human recombinant KHK-A, sequence (P50053 other isoform, or with tags, fused parts or gaps): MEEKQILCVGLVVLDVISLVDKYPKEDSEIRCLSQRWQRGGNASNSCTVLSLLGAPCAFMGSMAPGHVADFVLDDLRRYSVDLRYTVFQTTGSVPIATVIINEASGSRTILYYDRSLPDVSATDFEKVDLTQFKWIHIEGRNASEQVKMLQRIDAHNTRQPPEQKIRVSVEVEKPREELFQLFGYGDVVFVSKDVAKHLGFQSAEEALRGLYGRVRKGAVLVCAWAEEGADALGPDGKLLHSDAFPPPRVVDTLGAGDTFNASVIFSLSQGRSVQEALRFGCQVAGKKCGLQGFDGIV
In assay [3] the target is Human recombinant KHK-C (Homo sapiens (Human), UniProt P50053). The assay is described as above. The assay is classed as biochemical. Particulars: recombinant isozyme 6 nM, fructose 2 mM, ATP 0.1 mM. The protocol:
as §1, §2, §3

The target in assay [4] is Rat recombinant KHK-C (Rattus norvegicus (Rat), UniProt Q02974). The description is as above. The assay is classed as biochemical. Conditions: recombinant isozyme 6 nM, fructose 2 mM, ATP 0.1 mM. The procedure: as §1, §2, §3
Rat recombinant KHK-C, sequence (Q02974 whole entry): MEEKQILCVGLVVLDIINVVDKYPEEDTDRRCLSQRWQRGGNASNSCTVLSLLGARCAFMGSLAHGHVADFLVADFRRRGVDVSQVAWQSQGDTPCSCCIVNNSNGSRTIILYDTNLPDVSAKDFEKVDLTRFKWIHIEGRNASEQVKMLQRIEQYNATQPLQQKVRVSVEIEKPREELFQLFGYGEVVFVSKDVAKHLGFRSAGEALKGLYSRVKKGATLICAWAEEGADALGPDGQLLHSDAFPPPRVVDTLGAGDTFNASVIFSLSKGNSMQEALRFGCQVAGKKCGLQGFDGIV
The target of assay [5] is human KHK in HepG2 Cells (Homo sapiens (Human), UniProt P50053). Briefly: Cell-based potency assay (HepG2 assay), F1P by LC/MS. Particulars: fructose 20 mM, 20 min, F1P produced. The protocol: Testing inhibition effect of compounds against human KHK in HepG2 Cells
human KHK in HepG2 Cells, sequence (P50053 whole entry): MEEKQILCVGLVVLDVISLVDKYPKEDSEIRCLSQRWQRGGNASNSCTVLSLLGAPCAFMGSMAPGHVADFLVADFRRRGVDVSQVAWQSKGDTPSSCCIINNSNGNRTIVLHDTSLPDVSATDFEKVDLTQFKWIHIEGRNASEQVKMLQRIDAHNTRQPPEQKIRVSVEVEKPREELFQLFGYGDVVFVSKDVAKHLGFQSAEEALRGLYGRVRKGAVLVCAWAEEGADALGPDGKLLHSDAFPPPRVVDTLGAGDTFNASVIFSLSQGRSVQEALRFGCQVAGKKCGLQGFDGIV
HepG2 cells were grown in RPMI1640 supplemented media on 100 mm plates to near confluency (about 5-8×10^6 cells). The growth media was aspirated and 4 mL trypsin solution (0.25% (w/v)+0.25% (w/v) EDTA) was added, followed by incubation at 37° C. for 5-10 mins. The cells were pelleted and resuspended in 2 mL complete media.
The cells were then placed in a 96 well plate at 20,000-50,000 cells per well and grown for 20-28 hours at 37° C. to allow adherence.
Inhibitor compounds were diluted in DMSO to 50 μM, then serially diluted with MEM media (ThermoFisher). Final inhibitor concentration ranged from 1000 nM to 0.064 nM (5-fold dilution series).
The RPMI medium was removed from the plate of confluent cells. The plate was then incubated for 35 min at 37°, after which were added 0.1 mL of the diluted inhibitor compounds in MEM with fructose, 0.1 mL of MEM media without inhibitor compound or fructose, or trypsin; yielding a final concentration of fructose at 20 mM. The plate was subsequently incubated for 20 min at 37°, then placed on ice to stop the reactions.
Next, 200 μL of cold 80% (v/v) methanol:water was added to all wells, except the controls used to enumerate cell count. The plate was vortexed and cell debris removed by centrifugation. To measure F1P produced, the resulting supernatant fraction was analyzed by LC/MS.

Human recombinant KHK-C, sequence (P50053 whole entry): as above
Rat recombinant KHK-A, sequence (Q02974 other isoform, or with tags, fused parts or gaps): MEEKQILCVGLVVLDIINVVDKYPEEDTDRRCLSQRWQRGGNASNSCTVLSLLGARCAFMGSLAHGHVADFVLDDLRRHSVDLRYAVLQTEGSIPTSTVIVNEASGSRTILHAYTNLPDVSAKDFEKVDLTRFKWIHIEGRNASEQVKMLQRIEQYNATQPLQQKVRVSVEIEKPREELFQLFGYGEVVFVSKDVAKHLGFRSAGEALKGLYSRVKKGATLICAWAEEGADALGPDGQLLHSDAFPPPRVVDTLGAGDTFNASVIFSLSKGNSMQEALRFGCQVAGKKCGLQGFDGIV

As for `Cc1c(-c2cnn(CC(=O)N3CCNCC3)c2)nc(N2CC[C@@H]2C(F)(F)F)nc1C(F)(F)F` [Compound A1, 2-(4-{2-[(R)-2-(trifluoromethyl)-1-azetidinyl]-5-methyl-6-(trifluoromethyl)-4-pyrimidinyl}-1-pyrazolyl)-1-(1-piperazinyl)-1-ethanone], the IC50 (usually the concentration at which inhibition is half-maximal) in assay [1] is 2.2 nM; in assay [2], 6 nM; in assay [3], 4.06 nM; in assay [4], 9 nM; in assay [5], 7 nM.

With `O=C(Cn1cc(-c2cc(C(F)(F)F)nc(N3CC[C@@H]3C(F)(F)F)n2)cn1)N1CCNCC1` [Compound A2, 2-(4-{2-[(R)-2-(trifluoromethyl)-1-azetidinyl]-6-(trifluoromethyl)-4-pyrimidinyl}-1-pyrazolyl)-1-(1-piperazinyl)-1-ethanone], the IC50 in assay [1] was 9 nM; in assay [2] it was 13.5 nM; in assay [3] it was 31 nM; in assay [4], 26 nM; in assay [5], 48 nM.

As for `COc1c(-c2cnn(CC(=O)N3CCNCC3)c2)nc(N2CC[C@@H]2C)nc1C(F)(F)F` [Compound A5, 2-(4-{2-[(S)-2-methyl-1-azetidinyl]-5-methoxy-6-(trifluoromethyl)-4-pyrimidinyl}-1-pyrazolyl)-1-(1-piperazinyl)-1-ethanone], the IC50 amounted to 26 nM in assay [1], 69 nM in assay [2], 30.6 nM in assay [3] and 44 nM in assay [4].

For `CCc1c(-c2cnn(CC(=O)N3CCNCC3)c2)nc(N2CC[C@@H]2C)nc1C(F)(F)F` [Compound A6, 2-(4-{2-[(S)-2-methyl-1-azetidinyl]-5-ethyl-6-(trifluoromethyl)-4-pyrimidinyl}-1-pyrazolyl)-1-(1-piperazinyl)-1-ethanone], the IC50 worked out at 2.3 nM in assay [1]; 8.8 nM in assay [2]; 15.7 nM in assay [3]; 11 nM in assay [4]; 70 nM in assay [5].

As to `C[C@H]1CCN1c1nc(-c2cnn(CC(=O)N3CCNCC3)c2)cc(C(F)F)n1` [Compound A7, 2-(4-{2-[(S)-2-methyl-1-azetidinyl]-6-(difluoromethyl)-4-pyrimidinyl}-1-pyrazolyl)-1-(1-piperazinyl)-1-ethanone], the IC50 amounted to 46 nM in assay [1]; 160 nM in assay [2]; 231 nM in assay [3]; 120 nM in assay [4]; 332 nM in assay [5].

In the case of `COc1c(-c2cnn(C3CN(C)C3)c2)nc(N2C[C@@H](O)[C@@H]2C)nc1C(F)(F)F` [Compound A8, (2S,3R)-1-{5-methoxy-4-[1-(1-methyl-3-azetidinyl)-4-pyrazolyl]-6-(trifluoromethyl)-2-pyrimidinyl}-2-methyl-3-azetidinol], the IC50 was 5.5 nM in assay [1], 7.8 nM in assay [2], 6.46 nM in assay [3] and 16 nM in assay [4].

On to `C[C@H]1[C@H](O)CN1c1nc(-c2cnn(C3CN(C)C3)c2)c(Cl)c(C(F)(F)F)n1` [Compound A10, (2S,3R)-1-{5-chloro-4-[1-(1-methyl-3-azetidinyl)-4-pyrazolyl]-6-(trifluoromethyl)-2-pyrimidinyl}-2-methyl-3-azetidinol], for which the IC50 is 0.2 nM in assay [1], 0.2 nM in assay [2], 0.856 nM in assay [3] and 1.1 nM in assay [4].

As for `CCc1c(-c2cnn(C3CN(C)C3)c2)nc(N2C[C@@H](O)[C@@H]2C)nc1C(F)(F)F` [Compound A11, (2S,3R)-1-{5-ethyl-4-[1-(1-methyl-3-azetidinyl)-4-pyrazolyl]-6-(trifluoromethyl)-2-pyrimidinyl}-2-methyl-3-azetidinol], the concentration for half-maximal inhibition (IC50) in assay [1] was determined as 0.96 nM; in assay [2], 8.5 nM; in assay [3] it was 2.09 nM; in assay [4], 2.1 nM; in assay [5], 4 nM.

As for `Cc1c(-c2cnn(CC(=O)N3CCNCC3)c2)nc(N2CC[C@@H]2C(F)(F)F)nc1C(F)F` [Compound A18, 2-(4-{2-[(R)-2-(trifluoromethyl)-1-azetidinyl]-6-(difluoromethyl)-5-methyl-4-pyrimidinyl}-1-pyrazolyl)-1-(1-piperazinyl)-1-ethanone], the IC50 in assay [1] was determined as 4.1 nM; in assay [2], 5.3 nM; in assay [3], 7.42 nM; in assay [4] it was 9.5 nM; in assay [5], 11 nM.

As for `COc1c(-c2cnn(C3CN(C)C3)c2)nc(N2C[C@@H](O)[C@@H]2C)nc1C(F)F` [Compound A19, (2S,3R)-1-{6-(difluoromethyl)-5-methoxy-4-[1-(1-methyl-3-azetidinyl)-4-pyrazolyl]-2-pyrimidinyl}-2-methyl-3-azetidinol], the IC50 in assay [1] was 6.6 nM; in assay [2], 27 nM; in assay [3] it was 10.6 nM; in assay [4], 17 nM; in assay [5], 23 nM.

On to `Cc1c(-c2cnn(CC(=O)N3CCNCC3)c2)nc(N2CC[C@@H]2C)nc1C(F)F` [Compound A24, 2-(4-{2-[(S)-2-methyl-1-azetidinyl]-6-(difluoromethyl)-5-methyl-4-pyrimidinyl}-1-pyrazolyl)-1-(1-piperazinyl)-1-ethanone], for which the IC50 turned out to be 5.2 nM in assay [1]; 31 nM in assay [2]; 14.7 nM in assay [3]; 17 nM in assay [4]; 28 nM in assay [5].

Turning to `CCc1c(-c2cnn(CC(=O)N3CCNCC3)c2)nc(N2CC[C@@H]2C)nc1C(F)F` [Compound A26, 2-(4-{2-[(S)-2-methyl-1-azetidinyl]-6-(difluoromethyl)-5-ethyl-4-pyrimidinyl}-1-pyrazolyl)-1-(1-piperazinyl)-1-ethanone], the IC50 came out at 5.2 nM in assay [1], 13 nM in assay [2], 32.9 nM in assay [3] and 26 nM in assay [4].

As for `C[C@H]1[C@H](O)CN1c1nc(-c2cnn(C3CN(C)C3)c2)c(F)c(C(F)(F)F)n1` [Compound A27, (2S,3R)-1-{5-fluoro-4-[1-(1-methyl-3-azetidinyl)-4-pyrazolyl]-6-(trifluoromethyl)-2-pyrimidinyl}-2-methyl-3-azetidinol], the IC50 in assay [3] came out at 4.09 nM; in assay [5] it was 9 nM.

On to `COc1c(-c2cnn(CC(=O)N3CCNCC3)c2)nc(N2CC[C@@H]2C(F)(F)F)nc1C(F)(F)F` [Compound A28, 2-(4-{2-[(R)-2-(trifluoromethyl)-1-azetidinyl]-5-methoxy-6-(trifluoromethyl)-4-pyrimidinyl}-1-pyrazolyl)-1-(1-piperazinyl)-1-ethanone], for which the IC50 in assay [1] came out at 4.1 nM; in assay [2], 15 nM; in assay [3], 18 nM; in assay [4] it was 20 nM.

For `C[C@H]1CCN1c1nc(-c2cnn(CC(=O)N3CCNCC3)c2)c(F)c(C(F)(F)F)n1` [Compound A32, 2-(4-{2-[(S)-2-methyl-1-azetidinyl]-5-fluoro-6-(trifluoromethyl)-4-pyrimidinyl}-1-pyrazolyl)-1-(1-piperazinyl)-1-ethanone], the IC50 in assay [1] was 8.2 nM; in assay [2], 12 nM; in assay [3], 23.2 nM; in assay [4], 20 nM.

`O=C(Cn1cc(-c2cc(C(F)(F)F)nc(N3CC[C@@H]3C(F)F)n2)cn1)N1CCNCC1` [Compound A33, 2-(4-{2-[(R)-2-(difluoromethyl)-1-azetidinyl]-6-(trifluoromethyl)-4-pyrimidinyl}-1-pyrazolyl)-1-(1-piperazinyl)-1-ethanone]: the IC50 in assay [1] worked out at 23 nM; in assay [2], 65 nM; in assay [3], 90.9 nM; in assay [4] it was 86 nM.

`O=C(Cn1cc(-c2nc(N3CC[C@@H]3C(F)F)nc(C(F)(F)F)c2Cl)cn1)N1CCNCC1` [Compound A38, 2-(4-{2-[(R)-2-(difluoromethyl)-1-azetidinyl]-5-chloro-6-(trifluoromethyl)-4-pyrimidinyl}-1-pyrazolyl)-1-(1-piperazinyl)-1-ethanone]: the IC50 in assay [1] came to 7.3 nM; in assay [2], 6.5 nM; in assay [3], 3.64 nM; in assay [4], 14 nM; in assay [5], 36 nM.

(Values after patent US20240409530A1, “Disubstituted Pyrimidine Compounds for Ketohexokinase Inhibition” (Centennial Therapeutics, LLC, priority 2023, published 2024).)
